Reference: BindingDB's records for doi:10.1007/s00044-011-9593-5 (n/a, 2012)

Target: Integrase (Human immunodeficiency virus 1, UniProt Q7ZJM1)
Assay: Inhibition of Human immunodeficiency virus 1 integrase strand transfer activity

Chain of Integrase (Q7ZJM1 whole entry): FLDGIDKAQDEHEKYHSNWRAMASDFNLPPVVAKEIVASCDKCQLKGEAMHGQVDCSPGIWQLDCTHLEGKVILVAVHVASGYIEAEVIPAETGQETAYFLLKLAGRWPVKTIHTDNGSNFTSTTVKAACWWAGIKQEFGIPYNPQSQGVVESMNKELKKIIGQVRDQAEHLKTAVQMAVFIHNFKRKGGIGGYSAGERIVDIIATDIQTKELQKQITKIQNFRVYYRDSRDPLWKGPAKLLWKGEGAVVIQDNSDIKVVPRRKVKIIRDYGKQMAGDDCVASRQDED

In the case of CCN(CC)CCC[C@@H](C)Nc1ccnc2cc(Cl)ccc12 [Aralen], the IC50 is reported as 0.25 nM.
